ChEMBL document CHEMBL5154935, “Design, Synthesis, and Biological Evaluation of Novel Evodiamine Derivatives as Potential Antihepatocellular Carcinoma Agents” (J Med Chem, 2022)

Key:
[1] = Toxicity in BALB/c mouse xenografted with human Huh-7 cells assessed as histopathological change in liver at 10 mg/kg, ip qd for 11 days and measured after 12 days by hematoxylin and eosin staining based assay; assay type: organism-based; details: in vivo, 288 h, time 12 day
[2] = Toxicity in BALB/c mouse xenografted with human Huh-7 cells assessed as histopathological change in lung at 10 mg/kg, ip qd for 11 days and measured after 12 days by hematoxylin and eosin staining based assay; assay type: organism-based; details: in vivo, 288 h, time 12 day
[3] = Tmax in Sprague-Dawley rat at 80 mg/kg, ip measured upto 24 hrs by LC-MS analysis; assay type: ADME, organism-based; details: in vivo
[4] = MRT (0 to t) in Sprague-Dawley rat at 80 mg/kg, ip measured upto 24 hrs by LC-MS analysis; assay type: ADME, organism-based; details: in vivo
SK-HEP1 = experiment: Antiproliferative activity against human SK-Hep1 cells assessed as inhibition of cell viability at less than 0.068 uM treated for 24 hrs by MTT assay; assay type: functional

In the case of CC(=O)Oc1ccc2[nH]c3c(c2c1)CCN1C(=O)c2cc(F)cc(F)c2N(c2cccc(F)c2)C31 (stereo not given), the Activity [1] was “Non-Toxic”, the Activity [2] was “Non-Toxic” and the Tmax [3] was 3 h. For the same compound, the MRT last at 24 h [4] was 11.5 h and the Activity (SK-HEP1) was >80%.
